Here are results for three molecules from US20150209426A1, “TREATMENT OF CANCER” (Boehringer Ingelheim International GmbH, priority 2014, published 2015).

Structures are written as SMILES.

For test [1], the system named is cleaved PARP in MCF7aro cells. The test can be described thus: Cleaved PARP (apoptosis) in MCF7aro cell lysates by Western blot and MSD Apoptosis Panel. The class given is cell-based, human. The note with it: 72 h, 1 μM of each agent, versus vehicle-treated control. On the procedure:
1.5×10^6 MCF7aro cells were plated in 10 cm dishes in starvation medium (MEM alpha without phenol red, supplemented with 10% charcoal stripped FBS, 2 mM GlutaMAX and 1 mM sodium pyruvate). After overnight incubation, medium was changed to assay medium (MEM alpha without phenol red, supplemented with 10% charcoal stripped FBS, 2 mM GlutaMAX, 1 mM sodium pyruvate and 1 nM androstenedione) and the cells were treated with vehicle (DMSO), or 1 μM of IGF Ab 60833, or 1 μM exemestane, or 1 μM everolimus, or a combination of exemestane and everolimus, or a combination of all three inhibitors. At 72 h post treatment, the cells were lysed on ice with MSD Tris Lysis Buffer containing 20 mM Tris pH 7.5, 150 mM NaCl, 1 mM EDTA, 1 mM EGTA, 1% Triton X-100, completed with protease and phosphatase inhibitor cocktails. Prior to use, freshly prepared 2 mM PMSF was added to the buffer.
(§1) Total protein was isolated and protein concentration was quantified by Bradford protein assay according to the manufacturer's instructions. […]
Cells lysates were prepared according to the Meso Scale Discovery cell lysis protocol. 20 μg of clarified lysate was analyzed in duplicates with MSD Apoptosis Panel Whole Cell Lysate Kit, measuring cleaved PARP signals, according to the manufacturer's instructions. Plates were read on the SECTOR Imager 6000 plate reader.

For another test, the system named is MCF7aro cells. The test can be described thus: Cell proliferation assay of adherently growing MCF7aro breast cancer cells (AlamarBlue cell viability). The class given is cell-based, human. The conditions noted are these: 6 days of incubation, mean of three independent experiments, everolimus up to 50 nM, exemestane up to 200 nM, triple combination with fixed 10 nM IGF Ab 60833. The method, then: Three independent experiments were conducted to determine the anti-proliferative effect of IGF Ab 60833 in combination with everolimus and exemestane in MCF7aro breast cancer cells. Cell proliferation and viability following 6 days of incubation with test compounds was determined using an assay that monitors the reducing environment of the living cells in each assay well.
For cell proliferation assays and Western Blot analysis the cells were steroid-deprived for 72 h by cultivation in starvation medium (MEM alpha without phenol red, supplemented with 10% charcoal stripped FBS, 2 mM GlutaMAX and 1 mM sodium pyruvate). […]
The final concentration of the solvent DMSO in the test wells was 0.1%. Everolimus and exemestane were tested at 5 concentrations, each measured in duplicate wells, as single agents or in combination.
After 2 days of incubation with test compounds in a humidified incubator at 37° C. and 5% CO2, medium was changed to fresh assay medium and compounds were added again. […] Total fluorescence intensity of each well was then measured in a Wallac VICTOR Multilabel Counter using an excitation wavelength of 544 nm and measuring emission at 590 nm.
At the time of test compound addition, “time zero” (t=0) untreated cell plates were stained with AlamarBlue® Cell Viability Reagent. […] After incubation for 6 hours at 37° C. and 5% CO2, total fluorescence intensity was measured. […]

The test system of test [2] is AKT and S6 phosphorylation in MCF7aro cells. The test can be described thus: Western blot assessment of AKT and S6 phosphorylation status in MCF7aro cell lysates. In kind it is cell-based, human. The note with it: 24 hours, 100 nM IGF Ab 60833, 0.32 nM everolimus, versus vehicle (DMSO) control. On the procedure: 1.8×10^6 MCF7aro cells were plated in 10 cm dishes in starvation medium (MEM alpha without phenol red, supplemented with 10% charcoal stripped FBS, 2 mM GlutaMAX and […]). After overnight incubation, medium was changed to assay medium (MEM alpha without phenol red, supplemented with 10% charcoal stripped FBS, 2 mM GlutaMAX, 1 mM sodium pyruvate and 1 nM androstenedione) and the cells were treated with 100 nM of IGF Ab 60833 or 0.32 nM of everolimus or a combination of antibody and mTORC1 inhibitor. As a control, cells were treated with vehicle (DMSO) only. At 24 h post treatment, the cells were lysed on ice with MSD Tris Lysis Buffer containing 20 mM Tris pH 7.5, 150 mM NaCl, 1 mM EDTA, 1 mM EGTA, 1% Triton X-100, completed with protease and phosphatase inhibitor cocktails. Prior to use, freshly prepared 2 mM PMSF was added to the buffer.
as §1
The effect of IGF Ab 60833 and everolimus, as single agents and in combination, on the phosphorylation of AKT at serine 473 (pAKT S473) and threonine 308 (pAKT T308), and of S6 (pS6) at serine 235/236 was monitored by Western blot analysis of MCF7aro cell lysates prepared 24 hours post treatment.
(In general: Immunoblotting shows a protein as a band on a membrane.)

In test [3] the test system is advanced hormone receptor-positive, HER2-negative breast cancer. The conditions noted are these: cited from earlier work.
Test [4] has as its system hormone refractory, hormone receptor-positive, HER2-negative metastatic breast cancer. The conditions noted are these: hormone refractory HR+, HER2-negative metastatic breast cancer patients; cited from earlier work.

`CO[C@H]1C[C@@H]2CC[C@@H](C)[C@@](O)(O2)C(=O)C(=O)N2CCCC[C@H]2C(=O)O[C@H]([C@H](C)C[C@@H]2CC[C@@H](OCCO)[C@H](OC)C2)CC(=O)[C@H](C)/C=C(\C)[C@@H](O)[C@@H](OC)C(=O)[C@H](C)C[C@H](C)/C=C/C=C/C=C/1C` [everolimus]: the “levels of cleaved PARP (marker for apoptosis)” value in test [1] is “comparable to or only marginally higher than the level in the vehicle-treated control”. The “maximal mean CGI (cell growth inhibition)” value with MCF7aro cells came out at 47%. Moreover, in test [2], the “pAKT S473 and T308 levels by Western blot” value is reported as “increased compared to the vehicle (DMSO)-treated control”; the “pS6 (S235/236) signal by Western blot” value is “reduced pS6 signal”.
For `C=C1C[C@@H]2[C@H](CC[C@]3(C)C(=O)CC[C@@H]23)[C@@]2(C)C=CC(=O)C=C12` [exemestane, 6-Methylideneandrosta-1,4-diene-3,17-dione], the “levels of cleaved PARP (marker for apoptosis)” value in test [1] is “comparable to or only marginally higher than the level in the vehicle-treated control”. Moreover, the “maximal mean CGI (cell growth inhibition)” value with MCF7aro cells stood at 60%. Besides, the median progression-free survival in test [3] (by local investigator assessment) is listed as 3.2 months. In test [3] (in vivo), the overall response rate was 1.7%.
Regarding `CC/C(=C(\c1ccccc1)c1ccc(OCCN(C)C)cc1)c1ccccc1` [tamoxifen], the “time to progression (PFS)” value in test [4] is reported as 4.5 months.
